# Assay results: PubChem BioAssay AID266 (DTP/NCI, 2004)
# Values joined by “and” are separate entries in the source; they are usually repeats but may differ in a detail not shown here. Identical values can stand only once. Results filed as inconclusive are left out.
# System: Nude mice, LX-1 lung xenograft intrarenal, tumor weight T/C
# Test: NCI In Vivo Anticancer Drug Screen. Data for tumor model Human Lung LX-1 Xenograft (intrarenal inoculation) in NU/NU BALB/C (nude) mice
# Details: endpoint: mean tumor weight change, higher = larger tumour
# Protocol: The antitumor activity of compounds was measured in mice bearing transplantable tumors. Survival or tumor size were measured and the results are expressed as the measurement made in the treated group (T) divided by the measurement made in the vehicle treated control group (C). The tumor model used in this assay is Human Lung LX-1 Xenograft (intrarenal inoculation) in NU/NU BALB/C (nude) mice
# [1] = dose: 12.5 mg/kg/injection, schedule: Q01DX010 (sc), vehicle: saline with Tween-80
# [2] = dose: 25.0 mg/kg/injection, schedule: Q01DX010 (sc), vehicle: saline with Tween-80
# [3] = dose: 50.0 mg/kg/injection, schedule: Q01DX010 (sc), vehicle: Klucel (hydroxypropylcellulose) (HPC)
# [4] = dose: 300.0 mg/kg/injection, schedule: Q04DX003 (sc), vehicle: saline with Tween-80
# [5] = dose: 1200.0 mg/kg/injection, schedule: Q04DX003 (sc), vehicle: saline with Tween-80
compound,measurement,setting,value
[N-]=[N+]=CC(=O)CCC(N)C(=O)O (configuration not stated),T/C,"dose: 0.05 mg/kg/injection, schedule: Q01DX010 (sc), vehicle: saline",119 % of control
same,T/C,"dose: 0.05 mg/kg/injection, schedule: Q02DX005 (sc), vehicle: saline",226 % of control
same,T/C,"dose: 0.1 mg/kg/injection, schedule: Q01DX010 (sc), vehicle: saline",64 % of control
same,T/C,"dose: 0.1 mg/kg/injection, schedule: Q02DX005 (sc), vehicle: saline",187 % of control
same,T/C,"dose: 0.2 mg/kg/injection, schedule: Q02DX005 (sc), vehicle: saline",110 % of control
same,T/C,"dose: 0.4 mg/kg/injection, schedule: Q01DX010 (sc), vehicle: saline",34 % of control
same,T/C,"dose: 3.2 mg/kg/injection, schedule: Q02DX005 (sc), vehicle: saline",9 % of control
BrCCC1(CCBr)CCCCC1,T/C,"dose: 300.0 mg/kg/injection, schedule: Q04DX003 (sc), vehicle: water",104 % of control
same,T/C,"dose: 600.0 mg/kg/injection, schedule: Q04DX003 (sc), vehicle: water",89 % of control
same,T/C,"dose: 1200.0 mg/kg/injection, schedule: Q04DX003 (sc), vehicle: water",85 % of control
N[C@@H](Cc1ccc(N(CCCl)CCCl)cc1)C(=O)O,T/C,"dose: 1.0 mg/kg/injection, schedule: Q01DX010 (sc), vehicle: saline",94 % of control
same,T/C,"dose: 2.0 mg/kg/injection, schedule: Q01DX010 (sc), vehicle: saline",47 % of control
same,T/C,"dose: 4.0 mg/kg/injection, schedule: Q01DX010 (sc), vehicle: saline",13 % of control
same,T/C,"dose: 8.0 mg/kg/injection, schedule: Q01DX010 (sc), vehicle: saline",-19 % of control
O=c1cnn(C2OC(CO)C(O)C2O)c(=O)[nH]1 (configuration not stated),T/C,"dose: 200.0 mg/kg/injection, schedule: Q01DX010 (sc), vehicle: saline",42 % of control
same,T/C,"dose: 400.0 mg/kg/injection, schedule: Q01DX010 (sc), vehicle: saline",46 % of control
same,T/C,"dose: 800.0 mg/kg/injection, schedule: Q01DX010 (sc), vehicle: saline",35 % of control
O=NN(CCCl)C(=O)NCCCl,T/C,"dose: 4.0 mg/kg/injection, schedule: Q01DX010 (ip), vehicle: saline",32 % of control and 48 % of control
same,T/C,"dose: 13.33 mg/kg/injection, schedule: Q04DX003 (ip), vehicle: saline",9 % of control and 10 % of control
same,T/C,"dose: 16.0 mg/kg/injection, schedule: Q01DX010 (ip), vehicle: saline",-69 % of control and -87 % of control
same,T/C,"dose: 26.66 mg/kg/injection, schedule: Q04DX003 (ip), vehicle: saline",-21 % of control
O=[N+]([O-])O.O=[N+]([O-])O.[NH-]C1CCCCC1[NH-].[Pt+2] (configuration not stated),T/C,"dose: 0.5 mg/kg/injection, schedule: Q01DX010 (sc), vehicle: dextrose",76 % of control
same,T/C,"dose: 1.0 mg/kg/injection, schedule: Q01DX010 (sc), vehicle: dextrose",80 % of control
CN(N=O)C(N)=O,T/C,[1],-68 % of control
same,T/C,[2],-54 % of control
same,T/C,"dose: 50.0 mg/kg/injection, schedule: Q01DX010 (sc), vehicle: saline with Tween-80",-69 % of control
Nc1nc(=S)c2ncn(C3CC(O)C(CO)O3)c2[nH]1 (configuration not stated),T/C,[3],152 % of control
same,T/C,"dose: 100.0 mg/kg/injection, schedule: Q01DX010 (sc), vehicle: Klucel (hydroxypropylcellulose) (HPC)",118 % of control
same,T/C,"dose: 200.0 mg/kg/injection, schedule: Q01DX010 (sc), vehicle: Klucel (hydroxypropylcellulose) (HPC)",73 % of control
same,T/C,"dose: 400.0 mg/kg/injection, schedule: Q01DX010 (sc), vehicle: Klucel (hydroxypropylcellulose) (HPC)",107 % of control
c1ccc2c(NCCCCCCCCNc3c4ccccc4nc4ccccc34)c3ccccc3nc2c1,T/C,"dose: 5.0 mg/kg/injection, schedule: Q01DX010 (sc), vehicle: Klucel (hydroxypropylcellulose) (HPC)",60 % of control
same,T/C,"dose: 10.0 mg/kg/injection, schedule: Q01DX010 (sc), vehicle: Klucel (hydroxypropylcellulose) (HPC)",76 % of control
same,T/C,"dose: 20.0 mg/kg/injection, schedule: Q01DX010 (sc), vehicle: Klucel (hydroxypropylcellulose) (HPC)",23 % of control
same,T/C,"dose: 40.0 mg/kg/injection, schedule: Q01DX010 (sc), vehicle: Klucel (hydroxypropylcellulose) (HPC)",36 % of control
Cc1cc(NCCCCCCCNc2cc(C)nc3cc(N)ccc23)c2ccc(N)cc2n1,T/C,[1],48 % of control
same,T/C,[2],11 % of control
COC1=C(OC)C(=O)C(SC/C=C(\C)CCCC(C)CCCC(C)CCCC(C)C)=CC1=O (configuration not stated),T/C,"dose: 300.0 mg/kg/injection, schedule: Q04DX003 (ip), vehicle: saline with Tween-80",82 % of control
same,T/C,"dose: 600.0 mg/kg/injection, schedule: Q04DX003 (ip), vehicle: saline with Tween-80",110 % of control
same,T/C,"dose: 1200.0 mg/kg/injection, schedule: Q04DX003 (ip), vehicle: saline with Tween-80",72 % of control
CN(CCN(C)C(=O)CCOS(C)(=O)=O)C(=O)CCOS(C)(=O)=O,T/C,"dose: 37.5 mg/kg/injection, schedule: Q04DX003 (sc), vehicle: saline",90 % of control
same,T/C,"dose: 75.0 mg/kg/injection, schedule: Q04DX003 (sc), vehicle: saline",91 % of control
same,T/C,"dose: 150.0 mg/kg/injection, schedule: Q04DX003 (sc), vehicle: saline",86 % of control
same,T/C,"dose: 300.0 mg/kg/injection, schedule: Q04DX003 (sc), vehicle: saline",36 % of control
O=C(CCBr)N1CCN(C(=O)CCBr)CC1,T/C,[3],48 % of control
COCC(O)Cn1ccnc1[N+](=O)[O-] (configuration not stated),T/C,"dose: 2400.0 mg/kg/injection, schedule: Q04DX003 (sc), vehicle: suspension in saline",104 % of control
Nc1ccc(Cn2ccc3c4c(N)nc(N)nc4ccc32)cc1,T/C,"dose: 9.38 mg/kg/injection, schedule: Q04DX003 (sc), vehicle: saline with Tween-80",68 % of control
same,T/C,"dose: 18.75 mg/kg/injection, schedule: Q04DX003 (sc), vehicle: saline with Tween-80",51 % of control
same,T/C,"dose: 37.5 mg/kg/injection, schedule: Q04DX003 (sc), vehicle: saline with Tween-80",52 % of control
C1CC[N-]CC1.[Cl][Pt+2][Cl].[NH-]C1CC1,T/C,"dose: 25.0 mg/kg/injection, schedule: Q04DX003 (sc), vehicle: water",106 % of control
same,T/C,"dose: 50.0 mg/kg/injection, schedule: Q04DX003 (sc), vehicle: water",71 % of control
same,T/C,"dose: 100.0 mg/kg/injection, schedule: Q04DX003 (sc), vehicle: water",51 % of control
COc1ccc(C(=O)/C(Br)=C/C(=O)O)cc1,T/C,"dose: 25.0 mg/kg/injection, schedule: Q01DX010 (sc), vehicle: saline",194 % of control
same,T/C,"dose: 50.0 mg/kg/injection, schedule: Q01DX010 (sc), vehicle: saline",158 % of control
Cc1cnc(/C=N\NC(N)=S)c2cccc(N)c12,T/C,"dose: 31.75 mg/kg/injection, schedule: Q04DX003 (ip), vehicle: saline with Tween-80",74 % of control
same,T/C,"dose: 62.5 mg/kg/injection, schedule: Q04DX003 (ip), vehicle: saline with Tween-80",89 % of control
same,T/C,"dose: 125.0 mg/kg/injection, schedule: Q04DX003 (ip), vehicle: saline with Tween-80",49 % of control
O=NN(CCCl)C(=O)NC1OC(CO)C(O)C(O)C1O (configuration not stated),T/C,"dose: 5.0 mg/kg/injection, schedule: Q04DX003 (sc), vehicle: saline",86 % of control
same,T/C,"dose: 10.0 mg/kg/injection, schedule: Q04DX003 (sc), vehicle: saline",55 % of control
same,T/C,"dose: 20.0 mg/kg/injection, schedule: Q04DX003 (sc), vehicle: saline",66 % of control
CC(=O)OCC1(C)NC(=O)c2ccccc2O1 (configuration not stated),T/C,[4],86 % of control
same,T/C,[5],91 % of control
Cn1c(=O)[nH]c2nncnc2c1=O,T/C,"dose: 62.5 mg/kg/injection, schedule: Q04DX003 (sc), vehicle: water",110 % of control
COc1cc(C(C)(C)C)cc(OC)c1C(O)(c1c(OC)cc(C(C)(C)C)cc1OC)c1c(OC)cc(C(C)(C)C)cc1OC,T/C,[4],60 % of control
same,T/C,"dose: 600.0 mg/kg/injection, schedule: Q04DX003 (sc), vehicle: saline with Tween-80",54 % of control
same,T/C,[5],54 % of control
same,T/C,"dose: 2400.0 mg/kg/injection, schedule: Q04DX003 (sc), vehicle: saline with Tween-80",73 % of control
O=C(CN1CCOCC1)Nc1nc(-c2ccc(Cl)cc2)cs1,T/C,"dose: 100.0 mg/kg/injection, schedule: Q04DX003 (ip), vehicle: saline with Tween-80",118 % of control
same,T/C,"dose: 200.0 mg/kg/injection, schedule: Q04DX003 (ip), vehicle: saline with Tween-80",87 % of control
same,T/C,"dose: 400.0 mg/kg/injection, schedule: Q04DX003 (ip), vehicle: saline with Tween-80",106 % of control
same,T/C,"dose: 800.0 mg/kg/injection, schedule: Q04DX003 (ip), vehicle: saline with Tween-80",89 % of control
C1CN1c1nc(N2CC2)nc(N2CC2)n1,T/C,"dose: 0.25 mg/kg/injection, schedule: Q01DX010 (sc), vehicle: saline",34 % of control
same,T/C,"dose: 0.5 mg/kg/injection, schedule: Q01DX010 (sc), vehicle: saline",45 % of control
